{"source": "patent US20260125683A1", "about": "“TREATMENT OF CANCERS HAVING A DRUG-RESISTANT MESENCHYMAL CELL STATE” (DANA-FARBER CANCER INSTITUTE, INC., priority 2023, published 2026)", "key": {"[1]": {"test_system": "various cancer cell lines", "conditions": "read-out: IC50, apoptosis induction; cited from earlier work"}, "[2]": {"test_system": "normal human fibroblasts", "conditions": "read-out: IC50, apoptosis induction; cited from earlier work"}, "[3]": {"test_system": "anandamide uptake", "conditions": "cited from earlier work"}, "[4]": {"test_system": "anandamide levels", "conditions": "rat cerebellum; cited from earlier work"}, "[5]": {"test_system": "variety of cell types", "conditions": "cited from earlier work"}, "[6]": {"conditions": "cited from earlier work"}, "[7]": {"target": "MCT1 (Homo sapiens, UniProt P53985)", "sequence (P53985 whole entry)": "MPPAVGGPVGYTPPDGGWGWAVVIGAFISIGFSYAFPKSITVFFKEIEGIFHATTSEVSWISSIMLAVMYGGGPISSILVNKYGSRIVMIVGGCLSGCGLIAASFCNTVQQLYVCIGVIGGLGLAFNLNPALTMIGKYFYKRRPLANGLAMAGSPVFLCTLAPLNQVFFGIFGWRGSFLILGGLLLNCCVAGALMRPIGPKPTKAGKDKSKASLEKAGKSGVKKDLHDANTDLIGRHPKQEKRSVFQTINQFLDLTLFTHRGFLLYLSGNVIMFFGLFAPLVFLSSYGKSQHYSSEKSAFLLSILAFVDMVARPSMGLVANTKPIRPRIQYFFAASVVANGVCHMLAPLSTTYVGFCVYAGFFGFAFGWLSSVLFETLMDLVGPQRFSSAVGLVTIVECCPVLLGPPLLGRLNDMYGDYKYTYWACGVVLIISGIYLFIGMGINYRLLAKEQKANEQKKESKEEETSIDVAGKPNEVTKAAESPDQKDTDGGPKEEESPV", "conditions": "cited from earlier work"}, "[8]": {"target": "MCT2 (Homo sapiens, UniProt O60669)", "sequence (O60669 whole entry, species assumed)": "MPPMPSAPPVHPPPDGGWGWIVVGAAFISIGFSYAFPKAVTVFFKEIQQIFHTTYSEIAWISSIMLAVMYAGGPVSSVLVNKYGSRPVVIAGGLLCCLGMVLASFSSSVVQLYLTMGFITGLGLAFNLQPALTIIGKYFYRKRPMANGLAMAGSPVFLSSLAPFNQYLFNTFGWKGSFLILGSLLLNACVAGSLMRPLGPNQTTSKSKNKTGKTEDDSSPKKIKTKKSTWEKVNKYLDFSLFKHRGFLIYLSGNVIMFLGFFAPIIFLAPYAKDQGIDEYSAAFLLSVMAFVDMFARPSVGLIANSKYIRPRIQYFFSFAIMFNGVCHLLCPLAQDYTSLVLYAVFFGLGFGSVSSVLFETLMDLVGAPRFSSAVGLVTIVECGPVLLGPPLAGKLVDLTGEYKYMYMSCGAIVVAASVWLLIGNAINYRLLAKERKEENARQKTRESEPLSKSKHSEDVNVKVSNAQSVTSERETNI", "conditions": "cited from earlier work"}, "[9]": {"target": "sodium/D-glucose cotransporter", "conditions": "cited from earlier work"}, "[10]": {"test_system": "neutrophil chemotaxis", "conditions": "in vitro; read-out: IC50, neutrophil chemotaxis in response to IL-8; cited from earlier work"}, "[11]": {"test_system": "neutrophil margination", "conditions": "in vivo; read-out: IC50, neutrophil margination induced by IL-8; cited from earlier work"}, "[12]": {"target": "proteinase-activated receptor 1 (PAR1) (Homo sapiens, UniProt P25116)", "sequence (P25116 22-425, species assumed)": "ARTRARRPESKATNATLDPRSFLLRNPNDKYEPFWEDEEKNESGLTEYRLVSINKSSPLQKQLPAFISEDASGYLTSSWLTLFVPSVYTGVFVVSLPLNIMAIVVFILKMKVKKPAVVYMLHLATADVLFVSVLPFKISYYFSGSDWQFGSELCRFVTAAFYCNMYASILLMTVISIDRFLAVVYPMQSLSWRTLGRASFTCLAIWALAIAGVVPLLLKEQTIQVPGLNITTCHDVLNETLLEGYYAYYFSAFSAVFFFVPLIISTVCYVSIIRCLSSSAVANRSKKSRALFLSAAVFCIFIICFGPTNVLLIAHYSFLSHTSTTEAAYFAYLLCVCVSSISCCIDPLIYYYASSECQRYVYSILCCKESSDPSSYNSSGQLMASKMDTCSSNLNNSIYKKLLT", "conditions": "read-out: IC50, blocking binding of haTRAP; cited from earlier work"}, "[13]": {"test_system": "platelet aggregation", "conditions": "cited from earlier work"}, "[14]": {"target": "PAR2 (Homo sapiens, UniProt P55085)", "sequence (P55085 26-397)": "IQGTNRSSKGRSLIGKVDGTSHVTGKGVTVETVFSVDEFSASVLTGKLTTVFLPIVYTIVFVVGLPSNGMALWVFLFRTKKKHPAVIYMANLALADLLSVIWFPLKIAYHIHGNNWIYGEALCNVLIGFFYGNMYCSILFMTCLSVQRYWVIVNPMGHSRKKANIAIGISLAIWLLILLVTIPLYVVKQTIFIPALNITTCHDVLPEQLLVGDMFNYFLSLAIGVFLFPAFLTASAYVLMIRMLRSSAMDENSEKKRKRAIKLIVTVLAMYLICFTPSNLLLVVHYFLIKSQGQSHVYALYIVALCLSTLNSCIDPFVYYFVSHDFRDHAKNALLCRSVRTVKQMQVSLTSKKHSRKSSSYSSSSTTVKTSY", "conditions": "cited from earlier work"}, "[15]": {"target": "PAR4 (Homo sapiens, UniProt Q96RI0)", "sequence (Q96RI0 18-385)": "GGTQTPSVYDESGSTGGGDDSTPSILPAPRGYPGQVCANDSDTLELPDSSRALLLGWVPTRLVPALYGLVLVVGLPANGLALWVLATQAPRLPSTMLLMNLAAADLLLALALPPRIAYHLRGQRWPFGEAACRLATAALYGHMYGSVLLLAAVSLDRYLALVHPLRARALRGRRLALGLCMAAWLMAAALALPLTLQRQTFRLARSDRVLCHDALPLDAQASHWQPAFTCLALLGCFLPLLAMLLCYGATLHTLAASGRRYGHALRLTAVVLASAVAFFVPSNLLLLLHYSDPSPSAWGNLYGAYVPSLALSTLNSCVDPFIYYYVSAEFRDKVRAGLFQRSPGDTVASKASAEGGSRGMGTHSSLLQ", "conditions": "cited from earlier work"}, "[16]": {"target": "Glut1 (Homo sapiens, UniProt P11166)", "sequence (P11166 whole entry, species assumed)": "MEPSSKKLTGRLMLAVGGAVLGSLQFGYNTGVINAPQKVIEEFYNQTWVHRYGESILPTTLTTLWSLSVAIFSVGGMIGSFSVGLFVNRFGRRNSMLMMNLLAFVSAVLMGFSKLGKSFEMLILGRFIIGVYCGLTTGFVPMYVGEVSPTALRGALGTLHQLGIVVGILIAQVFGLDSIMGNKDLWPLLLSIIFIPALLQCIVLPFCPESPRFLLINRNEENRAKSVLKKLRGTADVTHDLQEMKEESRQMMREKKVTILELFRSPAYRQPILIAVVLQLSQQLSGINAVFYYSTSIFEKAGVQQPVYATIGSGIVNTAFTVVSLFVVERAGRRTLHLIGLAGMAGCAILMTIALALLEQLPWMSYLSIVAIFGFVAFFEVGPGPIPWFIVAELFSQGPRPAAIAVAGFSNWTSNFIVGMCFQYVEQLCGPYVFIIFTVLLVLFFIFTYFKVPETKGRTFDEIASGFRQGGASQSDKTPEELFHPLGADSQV", "conditions": "cited from earlier work"}, "[17]": {"test_system": "KP4, Panc1, Miapaca2 and 8988T (mesenchymal) vs Panc0403, Panc0504 and 8988S (epithelial) cancer cell lines", "assay": "Cell growth by cell-titer-glo assay, mesenchymal vs epithelial cancer cell lines", "format": "cell-based", "conditions": "FIG. 8", "method": "Validation studies were performed for two mesenchymal selective dependencies."}, "[18]": {"test_system": "carcinoma cell lines", "assay": "Correlation of EMT signatures with PRISM compound AUCs", "conditions": "PRISM drug testing cohort", "from_the_text": "(§1) FIG. 2A-2B—Investigation of the EMT signature and drug sensitivity data. FIG. 2A illustrates the top and bottom correlations between the PRISM compound AUCs (measure of drug sensitivity with a higher value indicating resistance) across three independent EMT down (FIG. 2A) and up (FIG. 2A continued) signatures (Byers, Groger, and Taube). FIG. 2B illustrates the top and bottom correlations between the CTD^2 drug testing cohort compound AUCs with the down (FIG. 2B) and up (FIG. 2B continued) EMT signatures (Byers, Groger, and Taube).\n(§2) Applicants analyzed correlations between the EMT signatures and drug sensitivities (FIG. 2).\n(§3) Data Curation. All analyses were performed using publicly available data downloaded from the Dependency Map web portal, corresponding to the 22Q2 release. Drug testing data was from the 19Q4 release of PRISM and the most recent release (2015) of CTD ([…]). EMT gene sets were taken from the supplementals of the Byers (2013), Groger (2012), and Taube (2010) EMT related publications. Gene sets were broken down into up (mesenchymal) and down (epithelial) sub-gene sets. If up or down is not labeled in a figure, the composite gene set (union of the up and down lists) was used for scoring. […]\n(§4) Computational Methods. […] EMT scores were generated using the GSVA package (v1.38.2) and Pearson correlations were calculated using the base cor function. […]"}, "[19]": {"test_system": "tumor cells having a mesenchymal state", "assay": "EMT signature and drug sensitivity data (PRISM and CTD^2, FIG. 2)", "conditions": "mesenchymal vs epithelial state", "description": "Data Curation. All analyses were performed using publicly available data downloaded from the Dependency Map web portal, corresponding to the 22Q2 release. Drug testing data was from the 19Q4 release of PRISM and the most recent release (2015) of CTD (Gröger, C. J., et al., 2012). EMT gene sets were taken from the supplementals of the Byers (2013), Groger (2012), and Taube (2010) EMT related publications. Gene sets were broken down into up (mesenchymal) and down (epithelial) sub-gene sets. If up or down is not labeled in a figure, the composite gene set (union of the up and down lists) was used for scoring. Only carcinoma coded cell lines were used in analyses. These carcinoma lines were then subset further, when indicated, based on KRAS mutation or pancreas lineage.\nComputational Methods. Analyses were performed using the statistical programming language R (v4.0.3, macOS 12.5.1, platform: x86_64-apple-darwin17.0 (64-bit)). EMT scores were generated using the GSVA package (v1.38.2) and Pearson correlations were calculated using the base cor function. All plots were generated using ggplot2 (v3.3.6). Data manipulation was performed using the dplyr (v1.0.8) and reshape2 (v.1.4.4) packages."}, "[20]": {"test_system": "Survivin promoter", "conditions": "HeLa-SURP-luc and CHO-SV40-luc cells; read-out: IC50, inhibition of Survivin promoter activity; cited from earlier work"}, "[21]": {"test_system": "SV40 promoter", "conditions": "cited from earlier work"}, "[22]": {"test_system": "carcinoma cell lines", "assay": "Correlation of EMT signatures with CTD^2 compound AUCs", "conditions": "CTD^2 drug testing cohort", "from_the_text": "as §1, §2, §3, §4"}}, "note": "“Also recorded” adds a separate entry of the source. Counter-ions that a name gives are not always drawn. Like-named read-outs stand apart in the source and are kept apart here."}
{"smiles": "OCCNCCCOc1cccc(Cl)c1Cl", "note": "[2,3-DCPE, 2-[3-(2,3-dichlorophenoxy)propylamino]ethanol;hydrochloride]", "values": [{"measurement": "IC50", "setting": "[1]", "value": "890 to 2690", "unit": "nM"}, {"measurement": "IC50", "setting": "[2]", "value": 12600, "unit": "nM"}]}
{"smiles": "CN(C)C(=O)n1nnnc1Cc1ccc(-c2ccccc2)cc1", "note": "[LY2183240, N,N-dimethyl-5-[(4-biphenyl)methyl]tetrazole-1-carboxamide]", "values": [{"measurement": "IC50", "setting": "[3]; read-out: IC50, anandamide uptake", "value": 270000, "unit": "nM"}, {"measurement": "Ki", "setting": "[3]; read-out: Ki, anandamide uptake", "value": 540000, "unit": "nM"}, {"measurement": "ED50, increase of anandamide levels", "setting": "[4]", "value": 1.37, "unit": "mg/kg"}]}
{"smiles": "CC[C@H]1/C=C/C=C/C[C@@H](C)[C@H](O)[C@@](C)(O)C(=O)[C@@H](C)[C@H](O)[C@@H](C)C(=O)[C@@H](C)[C@H](O)[C@@H](C)/C=C/C(=O)O[C@@H]2[C@H](C)[C@H](CC1)O[C@]1(CC[C@H](C)[C@H](C[C@@H](C)O)O1)[C@H]2C", "note": "[Oligomycin A, (1R,4E,5′S,6S,6′S,7R,8S,10R,11R,12S,14R,15S,16R,18E,20E,22R,25S,27R,28S,29R)-22-ethyl-7,11,14,15-tetrahydroxy-6′-[(2R)-2-hydroxypropyl]-5′,6,8,10,12,14,16,28,29-nonamethyl-3′,4′,5′,6′-tetrahydro-3H,9H,13H-spiro[2,26-dioxabicyclo[23.3.1]nonacosa-4,18,20-triene-27,2′-pyran]-3,9,13-trione]", "values": [{"measurement": "GI50", "setting": "[5]", "value": 270, "unit": "nM"}, {"measurement": "solubility in water and other biocompatible solvents", "setting": "[6]", "value": "poor solubility"}]}
{"smiles": "O=C(CCc1ccc(O)cc1)c1c(O)cc(O)cc1O", "note": "[Phloretin, 3-(4-hydroxyphenyl)-1-(2,4,6-trihydroxyphenyl)propan-1-one]", "values": [{"measurement": "IC50", "setting": "[7]", "value": 28000, "unit": "nM"}, {"measurement": "IC50", "setting": "[8]", "value": 14000, "unit": "nM"}, {"measurement": "Ki", "setting": "[9]", "value": 86000, "unit": "nM"}]}
{"smiles": "O=C(Nc1ccc([N+](=O)[O-])cc1O)Nc1ccccc1Br", "note": "[SB 225002, 1-(2-bromophenyl)-3-(2-hydroxy-4-nitrophenyl)urea]", "values": [{"measurement": "IC50", "setting": "[10]", "value": 20, "unit": "nM"}, {"measurement": "IC50", "setting": "[11]", "value": 30, "unit": "nM"}]}
{"smiles": "CC(C)c1ccc(Cn2ccc3c4c(N)nc(NC5CC5)nc4ccc32)cc1", "note": "[SCH 79797, 3-N-cyclopropyl-7-[(4-propan-2-ylphenyl)methyl]pyrrolo[3,2-f]quinazoline-1,3-diamine]", "values": [{"measurement": "IC50", "setting": "[12]", "value": 70, "unit": "nM"}, {"measurement": "IC50", "setting": "[13]; inducer haTRAP, read-out: IC50, platelet aggregation induced by haTRAP", "value": 300, "unit": "nM"}, {"measurement": "IC50", "setting": "[13]; inducer α-thrombin, read-out: IC50, platelet aggregation induced by α-thrombin", "value": 3000, "unit": "nM"}, {"measurement": "activity against PAR2", "setting": "[14]", "value": "no activity"}, {"measurement": "activity against PAR4", "setting": "[15]", "value": "no activity"}]}
{"smiles": "CC(C)(C)c1ccc(S(=O)(=O)NCc2ccc(C(=O)Nc3cccnc3)cc2)cc1", "note": "[STF-31, 4-[[[[4-(1,1-dimethylethyl)phenyl]sulfonyl]amino]methyl]-N-3-pyridinyl-benzamide]", "values": [{"measurement": "IC50", "setting": "[16]", "value": "~1000", "unit": "nM"}]}
{"smiles": "COCCn1c2c([n+](Cc3cnccn3)c1C)C(=O)c1ccccc1C2=O", "note": "[YM-155, 1-(2-methoxyethyl)-2-methyl-3-(pyrazin-2-ylmethyl)benzo[f]benzimidazol-3-ium-4,9-dione;bromide]", "values": [{"measurement": "selectivity of growth inhibition, mesenchymal vs epithelial cancer cells", "setting": "[17]", "value": "selective for inhibiting growth of mesenchymal cancer cells; also recorded: selectively targeted cancer cells that have undergone an epithelial-to-mesenchymal transition"}, {"measurement": "correlation of compound AUC with composite EMT signatures", "setting": "[18]", "value": "top positively correlated compound"}, {"measurement": "selective efficacy / lethality in the mesenchymal cell state", "setting": "[19]", "value": "potent selectivity against the mesenchymal cell state"}, {"measurement": "IC50", "setting": "[20]", "value": 0.54, "unit": "nM"}, {"measurement": "inhibition of SV40 promoter activity", "setting": "[21]", "value": "does not significantly inhibit"}]}
{"smiles": "O=C(Nc1ccc([N+](=O)[O-])cc1Cl)c1cc(Cl)ccc1O", "note": "[niclosamide, 5-chloro-N-(2-chloro-4-nitrophenyl)-2-hydroxybenzamide]", "values": [{"measurement": "correlation of compound AUC with composite EMT signatures", "setting": "[22]", "value": "top positively correlated compound"}, {"measurement": "selective efficacy / lethality in the mesenchymal cell state", "setting": "[19]", "value": "selective efficacy in mesenchymal cancer cells"}]}
